Results taken from patent US20220323443A1, “COMBINATION THERAPY FOR CANCER TREATMENT” (TAKEDA PHARMACEUTICAL COMPANY LIMITED, priority 2019, published 2022).
Where a name gives a salt, the structure may show the parent alone. Read-outs that look alike come from different tables or passages of the source.

What was measured:
H460 cancer cells = experiment: In vitro combination study with Compound 1, Cell Titer-Glo (ATP) cell viability, 72 h; format: cell-based; details: DNA damaging agent combined with Compound 1; 72 h;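 further: Ten-by-ten dose matrices of both drugs alongside single-agent dilutions, luminescence read 72 hours after compound addition, percent activity per well versus vehicle (DMSO) plate controls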
HCT116 cancer cells = experiment: as above; format: cell-based; details: DNA damaging agent combined with Compound 1; 72 h;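 further: combination call from 10×10 dose matrices in duplicate, graded by synergy, with percent activity per well relative to DMSO vehicle controls on the same plate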
H-1650 (Lung) = experiment: In vitro combination study for selected compounds, additional cell lines; format: cell-based; details: drug combined with Compound 1
Experimental: (§1) In vitro anti-proliferative effects of selected compounds were tested in additional cell lines, including ovarian cancer (SKOV3) and pancreatic cancer (MIA-PACA-2) cell lines.

CALU6 (Lung) = experiment: as above; format: cell-based; details: drug combined with Compound 1
Experimental: as §1

SW48 cancer cells = experiment: In vitro combination study with Compound 1, Cell Titer-Glo (ATP) cell viability, 72 h; format: cell-based; details: DNA damaging agent combined with Compound 1; 72 h
Experimental: (§10) Each combination pair was evaluated in an individual 384-well plate which contained variable doses of both compounds as single agents, as well as two, ten-by-ten matrices (in duplicate) that contained mixtures of the two test compounds. In brief, compounds were added to the cell test plates 16 hours after cell plating and then assessed for viability 72 hours later. Continuous cultures of tumor cells were maintained under standard cell culturing conditions (i.e. in a humidified chamber set at 37° C., containing atmosphere 5% carbon dioxide). […] Seventy-two hours after compound addition, ATP levels were measured to assess cell viability. Plating densities were chosen to ensure optimal linear growth over the 72 hour period.
Compound dilution and compound delivery to the assay plates were done on HighRes Robotic System (HighRes Biosolutions, Woburn, Mass., USA) with Echo™ Liquid Handler (Labcyte, Sunnyvale, Calif., USA). First, 384-well low dead volume (LDV) plates containing DMSO (Appendix B) and 10 mM compound stock solutions were used to create the required intermediate compound dilution plates. Next, these were used for compound transfer into cell assay plates. All wells were back-filled to give a constant percentage of DMSO.
(§11) The final DMSO concentration was held constant in all wells across the plate and was maintained at less than 0.5%. […] Cells treated with vehicle (DMSO) in two rows, or single compound serial dilutions in one plate columns/row served as the untreated control and single compound controls, respectively.
(§12) Compound activity in A549, COLO205, H460, HCT116, SW48, SW620 cancer cell lines was assessed using Cell Titer-Glo® (Promega [Madison, Wis., USA]). After 72 hours incubation, the plates were treated as per package insert protocol for the Promega Luminescence ATP Detection Systems. Briefly, 25 μL of cell lysis/substrate solution (provided in kit form) was added to each well and the plate was incubated at room temperature for 10 minutes. Luminescence was measured using a PHERAstar multi-label counter (BMG Labtech [Ortenberg, Germany]) or LEADseeker (GE Healthcare Life Sciences [Piscataway, N.J., USA]).
(§13) Numerical luminescence values were analyzed to generate EC50 curves and evaluate synergy. Raw Data reader files were uploaded along with automation workfiles that defined the plate and well contents. Percent activities were calculated for each well versus plate controls.
(§14) Each plate representing a single drug combination was analyzed separately. First, the viability measurements were normalized by scaling the data so that the median of the negative controls was 0 and the median of the positive controls was 100.
(§15) For the combination analysis, a response surface model was used to describe the relationship between the normalized viability and the drug concentrations. The data were fit to the model by minimizing the residual sum of squares. Based on the fitted response surface, plots of constant viability, called isobolograms, were produced.
(§16) The Combination Index and Nonlinear Blending were used as measures of drug synergy. To calculate Combination Index the 50% isobologram (which is the dose contour that has 50% viability) was used. […] A standard procedure was created to produce a call in order to characterize the viability effects for each combination (synergy, additivity, subadditivity, or antagonism). If the Combination Index existed then these measures were used to make the call.

[1] = system: PHTXS-13O human primary ovarian cancer xenografts; experiment: In vivo combination study, Patient Derived Xenograft; set-up: species or system mouse; details: for Result (combination with Compound 1, tumor growth): PHTXS-13O (170 mm^3) FIG. 4A
Experimental: (§2) To investigate in vivo antitumor activity of Compound 1 in combination with other agents, tests using Cell Derived Xenograft (CDX), Patient Derived Xenograft (PDX) and Syngeneic mouse tumor isograft model were conducted. Cells or Patient Derived Tumors were inoculated by one method of the following two methods (Method A and B) as shown Table 7.
(§3) Method A; Cells were maintained in either immune deficient nude mice or immune competent mice by subcutaneous inoculation of tumor cells at various concentrations into respected mice. Method B: Patient Derived Tumor s were maintained in nude mice by subcutaneous inoculation of tumor pieces (approx. 2×2×2 mm) into nude mice. Mice with tumor size of approximately 50 mm^3 (e.g., 40-75 mm^3) for syngeneic mouse studies or 200 mm^3 (e.g., 110-270 mm^3) for xenograft studies were randomly assigned to dose groups on the day (Day 0) before start date of dosing.
(§4) Compound 1 (crystalline form I) was suspended in 0.5 w/v % methylcellulose and administered orally to mice. Antibodies which administered in the experiment were described in Table 8.
(§5) Tumor size was measured by caliper and tumor volume was estimated using the equation V=(LW^2)/2, where L and W are tumor length and width, respectively and reported in cubic millimeters.
(§6) These values were compared across treatment groups to assess whether the differences in the trends over time were statistically significant. To compare pairs of treatment groups, the following mixed-effects linear regression model was fit to the data using the maximum likelihood method:
(§7) For synergy analyses, the observed differences in the log tumor values were used to calculate AUC values for each animal. In instances when an animal in a treatment group was removed from the study, the last observed tumor value was carried forward through all subsequent time points. The AUC for the control, or vehicle, group was calculated using the predicted values from the pairwise models described above. We defined a measure of synergy as follows:
(§8) where Ak and Bk are the k^th animal in the individual treatment groups and ABk is the k^th animal in combination treatment group. AUCcd is the model-predicted AUC for the control group and was treated as a constant with no variability. The standard error of the synergy score was calculated as the square root of the sum of squared standard errors across groups A, B, and AB. The degrees of freedom were estimated using the Welch-Satterthwaite equation. A hypothesis test was performed to determine if the synergy score differed from 0. P values were calculated by dividing the synergy score by its standard error and tested against a t-distribution (two-tailed) with the above-calculated degrees of freedom.
(§9) The effect was classified into four different categories. It was considered synergistic if the synergy score was less than 0 and additive if the synergy score wasn't statistically different from 0. If the synergy score was greater than zero, but the mean AUC for the combination was lower than the lowest mean AUC among the two single agent treatments, then the combination was sub-additive. If the synergy score was greater than zero, and the mean AUC for the combination was greater than the mean AUC for at least one of the single agent treatments, then the combination was antagonistic.

COLO205 cancer cells = experiment: In vitro combination study with Compound 1, Cell Titer-Glo (ATP) cell viability, 72 h; format: cell-based, human; details: DNA damaging agent combined with Compound 1; 72 h;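 further: Ten-by-ten dose matrices of both agents in duplicate plus single-agent dilutions, luminescent ATP read-out, percent activity per well relative to DMSO vehicle wells, synergy call from these matrices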
[2] = system: ovarian cancer (SKOV3) cell line; experiment: In vitro combination study for selected compounds, additional cell lines; format: cell-based; details: drug combined with Compound 1
Experimental: as §1

[3] = system: pancreatic cancer (MIA-PACA-2) cell line; experiment: as above; format: cell-based; details: drug combined with Compound 1
Experimental: as §1

A549 cancer cells = experiment: In vitro combination study with Compound 1, Cell Titer-Glo (ATP) cell viability, 72 h; format: cell-based;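 further: Ten-by-ten dose matrices of the two agents in duplicate, compounds added 16 h post-plating, activity relative to DMSO vehicle wells, call reflects synergy evaluation from luminescence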
Experimental: as §10
(§17) Compound dilution and compound delivery to the assay plates were done on HighRes Robotic System (HighRes Biosolutions, Woburn, Mass., USA) with Echo™ Liquid Handler (Labcyte, Sunnyvale, Calif., USA). […] Next, these were used for compound transfer into cell assay plates. All wells were back-filled to give a constant percentage of DMSO.
as §11, §12, §13, §14, §15, §16

SW620 cancer cells = experiment: as above; format: cell-based; details: DNA damaging agent combined with Compound 1; 72 h;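 further: Ten-by-ten dose matrices of both drugs in 384-well plates, luminescent ATP read-out, synergy evaluated against single-agent and DMSO vehicle controls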
Experimental: as §10, §17, §11, §12, §13, §14, §15, §16

[4] = system: PHTXM-79Es human primary esophagus cancer xenografts; experiment: In vivo combination study, Patient Derived Xenograft; set-up: species or system mouse
Experimental: as §2, §3, §4, §5, §6, §7, §8, §9

[5] = system: PHTXM-35Es human primary esophagus cancer xenografts; experiment: as above; set-up: species or system mouse; details: PHTXM-35Es (240 mm^3); Compound 1 60 mg/kg once daily Day 1-21; drug 10 mg/kg intraperitoneally Days 1,5,9,13,17,21
Experimental: as §2, §3, §4, §5, §6, §7, §8, §9

PHTXM-90Es (Esophagus) = experiment: as above; set-up: species or system mouse; details: PHTXM-90Es (185 mm^3); Compound 1 60 mg/kg once daily Day 1-21; drug 10 mg/kg intraperitoneally Days 1,5,9,13,17,21
Experimental: as §2, §3, §4, §5, §6, §7, §8, §9

[6] = system: PHTX-249Pa human primary pancreatic xenografts; experiment: as above; set-up: species or system mouse; details: PHTX-249Pa (195 mm^3)
Experimental: as §2, §3, §4, §5, §6, §7, §8, §9

PHTXM-97Pa (Pancreatic) = experiment: as above; set-up: species or system mouse; details: PHTXM-97Pa (180 mm^3)
Experimental: as §2, §3, §4, §5, §6, §7, §8, §9

[7] = Compound 1 20 mg/kg once daily Day 1-21, drug 5 mg/kg intraperitoneally Days 1,5,9,13,17,21
[8] = Compound 1 20 mg/kg once daily Day 1-21, drug 10 mg/kg intraperitoneally Days 1,5,9,13,17,21
[9] = Compound 1 40 mg/kg once daily Day 1-21, drug 5 mg/kg intraperitoneally Days 1,5,9,13,17,21
[10] = Compound 1 40 mg/kg once daily Day 1-21, drug 10 mg/kg intraperitoneally Days 1,5,9,13,17,21

Structure (SMILES) | Call, anti-proliferative effect of combination with Compound 1, H460 (H460 cancer cells) | Call, anti-proliferative effect of combination with Compound 1, HCT116 (HCT116 cancer cells) | In vitro combination effect with Compound 1, Lung H-1650 (H-1650 (Lung)) | Call, anti-proliferative effect of combination with Compound 1, SW48 (SW48 cancer cells) | Call, anti-proliferative effect of combination with Compound 1, COLO205 (COLO205 cancer cells) | In vitro combination effect with Compound 1, Ovary SKOV3 [2] | In vitro combination effect with Compound 1, Pancreas MIA-PACA-2 [3] | Call, anti-proliferative effect of combination with Compound 1, SW620 (SW620 cancer cells) | other results
N.N.O=C([O-])C1(C(=O)[O-])CCC1.[Pt+2] [Carboplatin] | Synergy (0 to 0.7) | Synergy (0 to 0.7) | Additive | Additivity (0.7 to 1.3) |  |  |  |  | In vitro combination effect with Compound 1, Lung CALU6 (CALU6 (Lung)): Additive; Result (combination with Compound 1, tumor growth) ([1]; Compound 1 40 mg/kg once daily Day 1-14, drug 30 mg/kg intraperitoneally Days 1,5,9,13): Additive; Result (combination with Compound 1, tumor growth) ([1]; Compound 1 40 mg/kg once daily Day 1-14, drug 50 mg/kg intraperitoneally Days 1,5,9,13): Additive; Result (combination with Compound 1, tumor growth) ([1]; Compound 1 60 mg/kg once daily Day 1-14, drug 30 mg/kg intraperitoneally Days 1,5,9,13): Additive; Result (combination with Compound 1, tumor growth) ([1]; Compound 1 60 mg/kg once daily Day 1-14, drug 50 mg/kg intraperitoneally Days 1,5,9,13): Additive; antitumor activity ([1]; combined with Compound 1, PHTXS-13O human primary ovarian cancer xenografts, FIG. 4A): strong antitumor activity compared to either single treatment alone
CCc1c2c(nc3ccc(O)cc13)-c1cc3c(c(=O)n1C2)COC(=O)[C@]3(O)CC [SN-38] | Synergy (0 to 0.7) | Synergy (0 to 0.7) | Additive | Additivity (0.7 to 1.3) | Additivity (0.7 to 1.3) | Additive | Additive | Synergy (0 to 0.7) | Call, anti-proliferative effect of combination with Compound 1, A549 (A549 cancer cells): Synergy (key: Inconclusive: Any; Additivity: 0.7 to 1.3; Synergy: 0 to 0.7; Subadditivity: 1.3 to 2; Antagonism: >2)
CC[C@@]1(O)C(=O)OCc2c1cc1n(c2=O)Cc2cc3c(CN(C)C)c(O)ccc3nc2-1 [Topotecan hydrochloride] | Synergy (0 to 0.7) | Synergy (0 to 0.7) | Additive | Additivity (0.7 to 1.3) | Synergy (0 to 0.7) | Additive | Additive | Synergy (0 to 0.7) | Call, anti-proliferative effect of combination with Compound 1, A549 (A549 cancer cells; DNA damaging agent combined with Compound 1, 72 h): Synergy (0 to 0.7)
CCc1c2c(nc3ccc(OC(=O)N4CCC(N5CCCCC5)CC4)cc13)-c1cc3c(c(=O)n1C2)COC(=O)[C@]3(O)CC [Irinotecan (CPT-11), Irinotecan] |  |  |  |  |  |  |  |  | Result (combination with Compound 1, tumor growth) ([4]; PHTXM-79Es (160 mm^3) FIG. 5B, Compound 1 60 mg/kg once daily Day 1-21, drug 10 mg/kg intraperitoneally Days 1,5,9,13,17,21): Additive; antitumor activity ([4]; combined with Compound 1, PHTXM-79Es human primary esophagus cancer xenografts, FIG. 5B): strong antitumor activity compared to either single treatment alone; Result (combination with Compound 1, tumor growth) [5]: Additive; Result (combination with Compound 1, tumor growth) (PHTXM-90Es (Esophagus)): Synergistic; Result (combination with Compound 1, tumor growth) [6, 7]: Additive; Result (combination with Compound 1, tumor growth) [6, 8]: Additive; Result (combination with Compound 1, tumor growth) [6, 9]: Additive; Result (combination with Compound 1, tumor growth) [6, 10]: Additive; Result (combination with Compound 1, tumor growth) (PHTXM-97Pa (Pancreatic); [7]): Additive; Result (combination with Compound 1, tumor growth) (PHTXM-97Pa (Pancreatic); [8]): Additive; Result (combination with Compound 1, tumor growth) (PHTXM-97Pa (Pancreatic); [9]): subadditive; Result (combination with Compound 1, tumor growth) (PHTXM-97Pa (Pancreatic); [10]): subadditive
